Consider five compounds from ChEMBL document CHEMBL3045122, “Synthesis, in vitro antimicrobial, antiproliferative, and QSAR studies of N-(substituted phenyl)-2/4-(1H-indol-3-ylazo)-benzamides” (Med Chem Res, 2013).

Bounds are passed on as bounds.

The subject of one test is P388. The test is described as follows: Cytotoxicity against Mus musculus (mouse) P388 cells assessed as growth inhibition after 72 hr by MTT assay. Type of test: functional, cell-based.
Another test deals with HCT-116. The test is described as follows: Cytotoxicity against Homo sapiens (human) HCT116 cells assessed as growth inhibition after 72 hr by MTT assay. Format: functional, cell-based. A general note: Tetrazolium assays rely on reduction of a dye to a coloured formazan, in cell work by metabolically active cells.
The subject of test [1] is Aspergillus niger. The test is described as follows: Ratio of MFC to MIC for Aspergillus niger. Format: functional.
The test system of a further test is MCF7. In words: Cytotoxicity against Homo sapiens (human) MCF7 cells assessed as growth inhibition after 72 hr by MTT assay. Type of test: functional, cell-based.
In test [2] the test system is Candida albicans. The test is described as follows: Ratio of MFC to MIC for Candida albicans. Format: functional.
The test system of test [3] is Escherichia coli. The test is described as follows: Ratio of MBC to MIC for Escherichia coli. Type of test: functional.
In test [4] the test system is Bacillus subtilis. In words: Ratio of MBC to MIC for Bacillus subtilis. Format: functional.
Test [5] has as its system Staphylococcus aureus. In words: Ratio of MBC to MIC for Staphylococcus aureus. Format: functional.
For test [6], the system named is Aspergillus niger. The test is described as follows: Fungicidal activity against Aspergillus niger. Type of test: functional.
Test [7] deals with Candida albicans. The test is described as follows: Fungicidal activity against Candida albicans. Format: functional.
For test [8], the system named is Escherichia coli. In words: Bactericidal activity against Escherichia coli. Type of test: functional.
The test system of test [9] is Bacillus subtilis. In words: Bactericidal activity against Bacillus subtilis. Format: functional.
For test [10], the system named is Staphylococcus aureus. The test is described as follows: Bactericidal activity against Staphylococcus aureus. Format: functional.
Test [11] deals with Aspergillus niger. The test is described as follows: Antifungal activity against Aspergillus niger assessed as growth inhibition after 7 days by tube dilution method. Type of test: functional.
In test [12] the test system is Escherichia coli. In words: Antibacterial activity against Escherichia coli assessed as growth inhibition after 24 hr by tube dilution method. Format: functional.
Test [13] has as its system Candida albicans. The test is described as follows: Antifungal activity against Candida albicans assessed as growth inhibition after 48 hr by tube dilution method. Type of test: functional.
The subject of test [14] is Bacillus subtilis. In words: Antibacterial activity against Bacillus subtilis assessed as growth inhibition after 24 hr by tube dilution method. Type of test: functional.
Test [15] concerns Staphylococcus aureus. In words: Antibacterial activity against Staphylococcus aureus assessed as growth inhibition after 24 hr by tube dilution method. Type of test: functional.

As to `Cc1ccc(C)c(NC(=O)c2ccc(/N=N\c3c[nH]c4ccccc34)cc2)c1`, the IC50 entry is reported as “Not Active” in the test with P388, 0.5435 uM/ml in the test with HCT-116 and 0.0299 uM/ml with MCF7. In addition, the Ratio in the test on Aspergillus niger [1], in the test on Candida albicans [2], in the test on Escherichia coli [3], with Bacillus subtilis [4] and in the test on Staphylococcus aureus [5] was 3 each time. Moreover, the MFC against Aspergillus niger [6] is recorded as 0.03 uM/ml; with Candida albicans [7], 0.07 uM/ml. Besides, the MBC against Escherichia coli [8], with Bacillus subtilis [9] and against Staphylococcus aureus [10] was greater than 0.14 uM/ml each time. Also, the “-logMIC” value in the test with Aspergillus niger [11] is on record as 1.47; in the test on Escherichia coli [12], 1.77; in the test on Candida albicans [13] it was 1.47; in the test on Bacillus subtilis [14] it was 1.47; in the test with Staphylococcus aureus [15], 1.47.
As to `COc1ccccc1NC(=O)c1ccc(/N=N\c2c[nH]c3ccccc23)cc1`, the IC50 result in the test with P388 was “Not Active”; in the test with HCT-116 it was 0.1216 uM/ml; with MCF7 it was 0.0865 uM/ml. Further, the Ratio in the test with Aspergillus niger [1], in the test on Candida albicans [2], with Escherichia coli [3], in the test on Bacillus subtilis [4] and in the test with Staphylococcus aureus [5] was 3 throughout. For the same compound, the MFC is reported as 0.07 uM/ml against Aspergillus niger [6] and 0.03 uM/ml against Candida albicans [7]. Also, the MBC in the test on Escherichia coli [8], in the test on Bacillus subtilis [9] and against Staphylococcus aureus [10] was greater than 0.13 uM/ml each time. Further, the “-logMIC” value with Aspergillus niger [11], in the test on Escherichia coli [12], in the test on Candida albicans [13], with Bacillus subtilis [14] and in the test on Staphylococcus aureus [15] was 1.47 throughout.
On to `Cc1ccccc1NC(=O)c1ccc(/N=N\c2c[nH]c3ccccc23)cc1`, for which the values for the IC50 entry with P388, in the test with HCT-116 and in the test with MCF7 were “Not Active”, 0.5085 uM/ml and 0.0734 uM/ml, respectively. In addition, the Ratio in the test with Aspergillus niger [1], with Candida albicans [2], with Escherichia coli [3], with Bacillus subtilis [4] and with Staphylococcus aureus [5] was 3 in each case. Moreover, the MFC with Aspergillus niger [6] is listed as 0.04 uM/ml; in the test on Candida albicans [7], greater than 0.14 uM/ml. Also, the MBC against Escherichia coli [8], in the test with Bacillus subtilis [9] and with Staphylococcus aureus [10] was greater than 0.14 uM/ml each time. The “-logMIC” value with Aspergillus niger [11] is 1.45; in the test with Escherichia coli [12], 1.45; in the test with Candida albicans [13] it was 1.45; with Bacillus subtilis [14] it was 1.45; in the test on Staphylococcus aureus [15] it was 1.15.
Regarding `O=C(Nc1ccccc1Cl)c1ccc(/N=N\c2c[nH]c3ccccc23)cc1`, the IC50 result is given as “Not Active” in the test on P388, 0.12 uM/ml in the test with HCT-116 and 0.112 uM/ml in the test on MCF7. Further, the Ratio in the test on Aspergillus niger [1], in the test with Candida albicans [2], in the test with Escherichia coli [3], in the test on Bacillus subtilis [4] and in the test with Staphylococcus aureus [5] was 3 in each case. Also, the MFC in the test on Aspergillus niger [6] is 0.03 uM/ml; in the test on Candida albicans [7], greater than 0.13 uM/ml. Besides, the MBC against Escherichia coli [8], against Bacillus subtilis [9] and against Staphylococcus aureus [10] was greater than 0.13 uM/ml each time. The “-logMIC” value in the test with Aspergillus niger [11] is 1.48; in the test on Escherichia coli [12], 1.78; in the test on Candida albicans [13], 1.48; with Bacillus subtilis [14], 1.48; in the test with Staphylococcus aureus [15] it was 1.18.
In the case of `O=c1[nH]cc(F)c(=O)[nH]1` [FLUOROURACIL], the IC50 in the test on P388 is 0.0219 uM/ml; in the test with HCT-116, 0.0462 uM/ml; with MCF7, 0.0052 uM/ml.
